From patent US20090275730A1, “Temperature responsive depsipeptide polymer” (priority 2004, published 2009)

Assay: Water solubility and temperature responsibility in aqueous solvent (visual / turbidity)
Description: However, the depsipeptide unit is not considered to be a material which exerts temperature responsibility in an aqueous solvent containing no organic solvent. […] Accordingly, the depsipeptide unit -Gly-X2-Cly-Hmb-Pro-(X2=any α-amino acid residue) is thought to be unsuitable as a temperature responsive material and thus has not been investigated intensively.

## Poly[(Gly^1-Val^2-Gly^3-Hmb^4-Ala^5-Pro^6)-co-(Gly^7-Lys(Z)^8-Gly^9-Val^10-Ala^11-Pro^12)]
  temperature responsibility in aqueous solvent: temperature responsibility thereof was confirmed
